Test results as given in ChEMBL document CHEMBL1201862, “PubChem BioAssay data set” (2004).
The source made the active and inactive calls.

Key:
[1] = biological target: T1, Apoptotic protease-activating factor 1 (Homo sapiens, UniProt O14727); assay: SAR analysis of small molecule inhibitors of Apaf-1 in a Fluorescent assay.; assay type: functional; details: read-out: IC50_Mean
T1 sequence (O14727 whole entry): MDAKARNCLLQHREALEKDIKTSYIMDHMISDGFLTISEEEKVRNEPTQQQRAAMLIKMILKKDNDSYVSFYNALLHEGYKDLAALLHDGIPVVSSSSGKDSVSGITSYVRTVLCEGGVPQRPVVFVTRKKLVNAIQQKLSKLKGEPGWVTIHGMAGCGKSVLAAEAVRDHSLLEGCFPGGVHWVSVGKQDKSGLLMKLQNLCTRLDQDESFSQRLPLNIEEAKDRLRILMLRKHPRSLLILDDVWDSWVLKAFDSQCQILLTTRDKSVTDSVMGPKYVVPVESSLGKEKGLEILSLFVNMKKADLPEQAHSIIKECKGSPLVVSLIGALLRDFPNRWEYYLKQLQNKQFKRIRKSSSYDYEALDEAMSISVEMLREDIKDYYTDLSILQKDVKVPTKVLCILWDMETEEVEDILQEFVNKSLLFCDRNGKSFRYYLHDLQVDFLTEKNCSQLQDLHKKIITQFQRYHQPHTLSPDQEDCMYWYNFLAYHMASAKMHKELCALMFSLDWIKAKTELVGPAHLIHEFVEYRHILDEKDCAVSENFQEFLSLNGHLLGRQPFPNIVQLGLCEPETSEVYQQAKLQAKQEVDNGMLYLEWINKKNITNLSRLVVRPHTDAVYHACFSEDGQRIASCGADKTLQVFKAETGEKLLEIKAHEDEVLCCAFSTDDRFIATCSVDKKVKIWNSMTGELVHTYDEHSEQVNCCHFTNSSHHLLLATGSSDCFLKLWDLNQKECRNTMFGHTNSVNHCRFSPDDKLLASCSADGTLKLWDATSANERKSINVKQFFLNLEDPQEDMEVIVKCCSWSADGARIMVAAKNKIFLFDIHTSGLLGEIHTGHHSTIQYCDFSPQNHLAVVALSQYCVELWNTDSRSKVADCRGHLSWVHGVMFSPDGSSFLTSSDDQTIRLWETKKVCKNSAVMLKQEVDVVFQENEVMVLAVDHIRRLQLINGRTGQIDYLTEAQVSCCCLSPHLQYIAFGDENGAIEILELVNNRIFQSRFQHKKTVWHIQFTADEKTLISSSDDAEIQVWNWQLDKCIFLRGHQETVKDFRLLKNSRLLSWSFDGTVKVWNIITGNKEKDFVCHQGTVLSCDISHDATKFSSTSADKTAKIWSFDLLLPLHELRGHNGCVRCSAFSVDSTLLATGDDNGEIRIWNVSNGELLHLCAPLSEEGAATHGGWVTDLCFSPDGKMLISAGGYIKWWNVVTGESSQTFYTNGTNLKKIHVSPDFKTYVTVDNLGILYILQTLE

[2] = biological target: Ras and Rab interactor 1/Tyrosine-protein kinase ABL1 (Homo sapiens, UniProt P00519+Q13671); assay type: functional;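 also: biochemical TR-FRET dose-response test measuring inhibition of binding between Rin1 and Abl proteins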
[3] = biological target: T2, DNA repair protein RAD52 homolog (Homo sapiens, UniProt P43351); assay type: functional, biochemical
T2 sequence (P43351 whole entry): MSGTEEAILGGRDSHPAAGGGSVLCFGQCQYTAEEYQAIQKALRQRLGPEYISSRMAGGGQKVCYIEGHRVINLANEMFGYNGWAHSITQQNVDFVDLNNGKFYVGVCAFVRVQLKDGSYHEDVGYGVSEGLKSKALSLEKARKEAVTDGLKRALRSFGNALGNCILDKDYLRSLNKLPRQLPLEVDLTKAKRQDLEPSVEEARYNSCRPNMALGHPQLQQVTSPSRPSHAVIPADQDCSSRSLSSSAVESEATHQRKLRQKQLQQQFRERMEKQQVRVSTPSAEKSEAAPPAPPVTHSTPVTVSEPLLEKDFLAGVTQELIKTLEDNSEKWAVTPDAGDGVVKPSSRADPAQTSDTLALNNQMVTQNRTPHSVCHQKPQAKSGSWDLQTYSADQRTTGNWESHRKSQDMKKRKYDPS

[4] = biological target: T3, High affinity choline transporter 1 (Homo sapiens, UniProt Q9GZV3); assay: CHT inhibitors, dose response, cell-based, 10-point CRC, membrane potential dye (AID 588401); assay type: functional;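 also: membrane potential dye fluorescence of choline-evoked depolarization via CHT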
T3 sequence (Q9GZV3 whole entry): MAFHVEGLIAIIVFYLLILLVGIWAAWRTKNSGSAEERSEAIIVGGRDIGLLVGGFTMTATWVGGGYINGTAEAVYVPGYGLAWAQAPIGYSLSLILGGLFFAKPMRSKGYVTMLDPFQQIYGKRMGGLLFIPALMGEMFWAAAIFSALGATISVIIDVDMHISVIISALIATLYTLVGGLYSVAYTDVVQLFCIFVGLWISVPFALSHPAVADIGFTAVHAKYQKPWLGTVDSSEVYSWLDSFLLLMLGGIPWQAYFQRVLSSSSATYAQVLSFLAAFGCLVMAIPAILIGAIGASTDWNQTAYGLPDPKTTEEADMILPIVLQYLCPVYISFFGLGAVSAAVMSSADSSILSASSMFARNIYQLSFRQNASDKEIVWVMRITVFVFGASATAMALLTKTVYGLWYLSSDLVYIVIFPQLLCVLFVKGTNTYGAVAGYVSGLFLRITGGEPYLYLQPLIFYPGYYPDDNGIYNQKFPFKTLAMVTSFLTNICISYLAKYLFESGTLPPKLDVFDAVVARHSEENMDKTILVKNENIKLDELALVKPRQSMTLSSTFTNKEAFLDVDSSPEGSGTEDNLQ

[5] = biological target: T3, High affinity choline transporter 1; assay: CHT inhibitors, dose response, cell-based, 5-point CRC, membrane potential dye (AID 504840); assay type: functional
Interleukin-8 [6] = biological target: T4, Interleukin-8 (Homo sapiens, UniProt P10145); assay: Dose Response confirmation of uHTS small molecule hits for cystic fibrosis induced NFkb Inhibitors in a TNFa-induced IL8 counterscreen.; assay type: functional; details: read-out: IC50_Mean
T4 sequence (P10145 whole entry): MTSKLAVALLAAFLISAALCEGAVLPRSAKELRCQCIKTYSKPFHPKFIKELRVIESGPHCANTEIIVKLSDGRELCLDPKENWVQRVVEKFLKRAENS

Interleukin-8 [7] = biological target: T4, Interleukin-8; assay: Dose Response confirmation of uHTS small molecule hits for cystic fibrosis induced NFkb Inhibitors in a PAF-induced IL8 counterscreen.; assay type: functional; details: read-out: IC50_Mean
[8] = enhancers of respiration in Yfh1-depleted yeast, dose response, Friedreich's ataxia, plus single-dose screen (AID 1465); assay type: functional;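 also: yeast depleted of Yfh1p frataxin homolog grown on glycerol needing respiration; WST-1 tetrazolium dye reduction as measure of cellular dehydrogenase metabolic activity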
[9] = miR-122 activators in hepatoma reporter cells, dose response, cell-based, Huh7 psiCHECK-miR122, Renilla luciferase, cherry-picked (AID 651956); assay type: functional;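 also: huh7 hepatoma cells stably carrying a psiCHECK-2 miR-122 sensor plasmid; renilla luciferase signal reporting endogenous miR-122 activity after 48 h compound exposure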
Protein skinhead-1 = biological target: T5, Protein skinhead-1 (Caenorhabditis elegans, UniProt P34707); assay type: functional
T5 sequence (P34707 whole entry): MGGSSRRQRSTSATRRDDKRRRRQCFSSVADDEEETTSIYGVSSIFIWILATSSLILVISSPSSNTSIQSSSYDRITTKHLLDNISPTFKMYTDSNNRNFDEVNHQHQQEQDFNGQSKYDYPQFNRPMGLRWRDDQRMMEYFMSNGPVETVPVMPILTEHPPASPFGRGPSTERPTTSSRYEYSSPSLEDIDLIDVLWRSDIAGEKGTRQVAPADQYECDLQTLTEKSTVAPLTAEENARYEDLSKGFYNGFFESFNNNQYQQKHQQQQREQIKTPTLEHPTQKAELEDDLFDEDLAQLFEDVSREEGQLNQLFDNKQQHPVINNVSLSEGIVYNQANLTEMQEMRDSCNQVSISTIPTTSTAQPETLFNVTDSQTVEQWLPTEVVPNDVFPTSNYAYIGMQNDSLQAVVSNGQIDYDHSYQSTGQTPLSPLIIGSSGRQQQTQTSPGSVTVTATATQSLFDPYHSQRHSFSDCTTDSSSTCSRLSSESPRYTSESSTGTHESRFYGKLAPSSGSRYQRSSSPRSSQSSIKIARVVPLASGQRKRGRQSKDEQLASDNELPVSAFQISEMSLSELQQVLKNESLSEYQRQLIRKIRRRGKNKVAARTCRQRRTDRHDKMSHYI

[10] = biological target: FAD-linked sulfhydryl oxidase ALR (Homo sapiens, UniProt P55789); assay: inhibitors of human ALR sulfhydryl oxidase, dose response, biochemical, H2O2 detection, luminescence, cherry-pick (AID 493248)
[11] = inhibitors of intracellular T. cruzi replication, confirmation, NIH3T3 host cells, beta-gal luminescence (AID 2044); assay type: functional, cell-based;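 also: intracellular parasites grown in NIH/3T3 mouse fibroblasts as host cells; luminescent beta-galactosidase reporter signal from transgenic T. cruzi replicating inside host cells; inhibitors lower the luminescence signal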
[12] = biological target: DNA repair and recombination protein RAD54-like (Homo sapiens, UniProt Q92698); assay: inhibitors of human RAD54 branch migration, confirmation, biochemical, fluorescence, cherry-picked samples, dose series (AID 651657); assay type: functional
[13] = cytotoxicity toward NIH3T3 fibroblasts, dose response, counter-screen, cell-based, ATP luminescence, mouse fibroblasts (AID 2010); assay type: functional;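 also: cells exposed to compound for about 90 hours before reading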
H9c2 = assay: cells; assay type: functional, cell-based; details: Rattus norvegicus, H9c2, Myocardium;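 also: confirmatory concentration-response retest of ultra-high-throughput screening hits for modulation of myocardial damage; cell death induced by hydrogen peroxide oxidative stress; compound pretreatment for 60 min then peroxide exposure for 2 h; potency is for protecting the cells against peroxide damage rather than for killing them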
[14] = growth suppression of PTEN-null colon cells, dose response, cell-based, HCT116 PTEN knockout (AID 1047); assay type: functional;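 also: HCT116 colon tumor cells with PTEN knocked out; cells exposed to compound for 60 hours before readout; potency for loss of cell viability measured by luminescence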
[15] = growth suppression of beta-catenin-knockout colon cells, dose response, cell-based, HCT116, human colon tumor (AID 1045); assay type: functional;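 also: HCT116 colon tumor cells with beta catenin knocked out; cells exposed to compound for 60 hours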
[16] = biological target: Heat shock protein HSP 90-alpha (Homo sapiens, UniProt P07900); assay type: functional, organism-based
CHO = assay: cytotoxicity in TLR9-MyD88 CHO cells, dose response, cytotoxicity control for TLR9-MyD88 binding inhibitor project, cell-based, luminescence (AID 588339); assay type: functional, hamster; details: Cricetulus griseus;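 also: CHO cells stably coexpressing TLR9 and MyD88 fusions from primary screen; compound exposure lasted 48 hours before viability readout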
Beta Lactamase [17] = biological target: T6, Beta Lactamase (Pseudomonas aeruginosa, UniProt Q932Y6); assay: beta-lactamase reporter inhibitor potency, dose response, artefact control for TLR9-MyD88 binding inhibitor project, BLA reporter cells, FRET fluorescence (AID 588341); assay type: cell-based;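 also: cell based assay in CHO-K1 cells stably expressing beta-lactamase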
[18] = AlphaScreen signal interference compounds, dose response, artefact control for ARNT-TACC3 interaction inhibitor project, biochemical, luminescence, cherry-pick (AID 651705); assay type: functional;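 also: AlphaScreen bead proximity signal that flags compounds interfering with the detection technology; potency reflects signal decrease which marks the compound as an assay artifact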
[19] = Fluorescence-based cell-based high throughput dose response assay for inhibitors of the interaction of nucleotide-binding oligomerization domain containing 2 (NOD2) and the receptor-interacting serine-threonine kinase 2 (RIPK2).; assay type: functional; details: Homo sapiens
Beta Lactamase [20] = biological target: T6, Beta Lactamase; assay: beta-lactamase reporter inhibitor potency, dose response, artefact control for NOD2-RIPK2 interaction inhibitor project, BLA reporter cells, FRET fluorescence (AID 651552); assay type: functional, cell-based
[21] = biological target: Photoreceptor-specific nuclear receptor (Homo sapiens, UniProt Q9Y5X4); assay type: functional, cell-based;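 also: CHO-S cells with Gal4-NCOR and VP16-NR2E3 two-hybrid luciferase reporter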
Large T antigen = Large T antigen (Simian virus 40, UniProt P03070); assay type: functional, Betapolyomavirus macacae;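 also: Confirmatory-stage PubChem screen for compounds that inhibit SV40 T antigen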
[22] = biological target: Hepatocyte nuclear factor 4-alpha (Homo sapiens, UniProt P41235); assay type: functional, cell-based;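 also: biochemical luminescence-based dose-response counterscreen measuring inhibition of HNF4 dimerization, run alongside a screen for blockers of ABHD5–perilipin-5 interaction; split luciferase complementation of HNF4 fusion proteins in cell lysate measuring dimerization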
Melanocortin receptor 4 = Melanocortin receptor 4 (Homo sapiens, UniProt P32245); assay type: functional, cell-based;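 also: Cell-based assay with luminescence read-out, confirmatory dose-response testing for agonist activity of biased ligands at MC4R; human U2OS cells with tagged receptor and beta-arrestin; potency of agonists that increase receptor coupling to beta-arrestin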
Chain of Melanocortin receptor 4 (P32245 whole entry): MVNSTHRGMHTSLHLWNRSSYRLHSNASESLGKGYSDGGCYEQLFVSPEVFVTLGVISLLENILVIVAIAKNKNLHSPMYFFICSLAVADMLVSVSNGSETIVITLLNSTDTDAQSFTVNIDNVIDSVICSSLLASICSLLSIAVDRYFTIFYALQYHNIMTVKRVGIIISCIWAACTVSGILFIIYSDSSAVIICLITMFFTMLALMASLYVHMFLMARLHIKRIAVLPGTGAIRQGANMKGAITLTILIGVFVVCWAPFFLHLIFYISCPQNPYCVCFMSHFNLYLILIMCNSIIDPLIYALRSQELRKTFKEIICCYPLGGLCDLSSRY

T6 sequence (Q932Y6 whole entry): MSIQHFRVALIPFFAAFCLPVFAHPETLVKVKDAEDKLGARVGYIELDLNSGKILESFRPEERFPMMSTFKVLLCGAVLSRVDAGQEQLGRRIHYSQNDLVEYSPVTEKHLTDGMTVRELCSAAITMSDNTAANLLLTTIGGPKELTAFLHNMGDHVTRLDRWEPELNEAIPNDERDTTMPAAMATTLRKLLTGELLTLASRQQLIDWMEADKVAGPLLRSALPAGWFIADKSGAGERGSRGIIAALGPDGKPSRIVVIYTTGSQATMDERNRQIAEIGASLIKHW
Chain of FAD-linked sulfhydryl oxidase ALR (P55789 whole entry): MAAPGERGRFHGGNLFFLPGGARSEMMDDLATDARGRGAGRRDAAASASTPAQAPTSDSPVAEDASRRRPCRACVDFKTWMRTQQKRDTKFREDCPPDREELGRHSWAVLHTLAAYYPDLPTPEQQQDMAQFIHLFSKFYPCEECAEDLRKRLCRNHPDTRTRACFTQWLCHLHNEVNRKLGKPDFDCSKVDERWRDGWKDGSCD
Chain of DNA repair and recombination protein RAD54-like (Q92698 whole entry): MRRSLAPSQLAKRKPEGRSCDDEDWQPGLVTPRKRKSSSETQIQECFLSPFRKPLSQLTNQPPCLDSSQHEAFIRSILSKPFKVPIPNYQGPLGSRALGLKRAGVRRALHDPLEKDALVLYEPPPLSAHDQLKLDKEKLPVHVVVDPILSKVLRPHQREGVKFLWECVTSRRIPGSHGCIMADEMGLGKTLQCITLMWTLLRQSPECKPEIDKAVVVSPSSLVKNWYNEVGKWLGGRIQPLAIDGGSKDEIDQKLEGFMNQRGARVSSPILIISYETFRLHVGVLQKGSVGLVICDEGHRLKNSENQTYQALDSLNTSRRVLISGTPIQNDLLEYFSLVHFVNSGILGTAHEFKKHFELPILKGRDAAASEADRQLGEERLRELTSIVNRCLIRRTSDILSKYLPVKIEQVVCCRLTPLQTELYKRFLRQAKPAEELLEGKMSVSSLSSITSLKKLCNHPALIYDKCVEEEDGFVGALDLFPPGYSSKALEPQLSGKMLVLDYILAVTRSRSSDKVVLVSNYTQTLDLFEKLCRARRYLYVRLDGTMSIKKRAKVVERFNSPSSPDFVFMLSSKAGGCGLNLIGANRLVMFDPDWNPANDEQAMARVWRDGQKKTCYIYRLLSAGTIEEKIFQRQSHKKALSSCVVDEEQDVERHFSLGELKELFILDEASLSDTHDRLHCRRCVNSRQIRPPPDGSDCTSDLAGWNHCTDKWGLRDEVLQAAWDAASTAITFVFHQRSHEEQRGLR
Chain of Hepatocyte nuclear factor 4-alpha (P41235 whole entry, the tested form may be a part): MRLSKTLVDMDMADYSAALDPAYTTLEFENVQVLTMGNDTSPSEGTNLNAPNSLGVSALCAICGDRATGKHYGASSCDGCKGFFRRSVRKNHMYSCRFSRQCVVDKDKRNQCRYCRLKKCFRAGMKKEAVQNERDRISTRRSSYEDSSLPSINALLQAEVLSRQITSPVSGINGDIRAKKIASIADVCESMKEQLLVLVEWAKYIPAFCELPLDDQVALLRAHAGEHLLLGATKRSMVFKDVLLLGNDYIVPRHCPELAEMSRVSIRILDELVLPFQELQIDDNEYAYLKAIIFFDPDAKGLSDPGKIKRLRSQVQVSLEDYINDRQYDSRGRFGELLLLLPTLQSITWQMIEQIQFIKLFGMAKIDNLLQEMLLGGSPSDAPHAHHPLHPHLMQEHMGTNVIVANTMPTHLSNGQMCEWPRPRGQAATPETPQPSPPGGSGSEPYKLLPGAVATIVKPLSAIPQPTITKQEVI
Chain of Ras and Rab interactor 1/Tyrosine-protein kinase ABL1 (P00519 whole entry): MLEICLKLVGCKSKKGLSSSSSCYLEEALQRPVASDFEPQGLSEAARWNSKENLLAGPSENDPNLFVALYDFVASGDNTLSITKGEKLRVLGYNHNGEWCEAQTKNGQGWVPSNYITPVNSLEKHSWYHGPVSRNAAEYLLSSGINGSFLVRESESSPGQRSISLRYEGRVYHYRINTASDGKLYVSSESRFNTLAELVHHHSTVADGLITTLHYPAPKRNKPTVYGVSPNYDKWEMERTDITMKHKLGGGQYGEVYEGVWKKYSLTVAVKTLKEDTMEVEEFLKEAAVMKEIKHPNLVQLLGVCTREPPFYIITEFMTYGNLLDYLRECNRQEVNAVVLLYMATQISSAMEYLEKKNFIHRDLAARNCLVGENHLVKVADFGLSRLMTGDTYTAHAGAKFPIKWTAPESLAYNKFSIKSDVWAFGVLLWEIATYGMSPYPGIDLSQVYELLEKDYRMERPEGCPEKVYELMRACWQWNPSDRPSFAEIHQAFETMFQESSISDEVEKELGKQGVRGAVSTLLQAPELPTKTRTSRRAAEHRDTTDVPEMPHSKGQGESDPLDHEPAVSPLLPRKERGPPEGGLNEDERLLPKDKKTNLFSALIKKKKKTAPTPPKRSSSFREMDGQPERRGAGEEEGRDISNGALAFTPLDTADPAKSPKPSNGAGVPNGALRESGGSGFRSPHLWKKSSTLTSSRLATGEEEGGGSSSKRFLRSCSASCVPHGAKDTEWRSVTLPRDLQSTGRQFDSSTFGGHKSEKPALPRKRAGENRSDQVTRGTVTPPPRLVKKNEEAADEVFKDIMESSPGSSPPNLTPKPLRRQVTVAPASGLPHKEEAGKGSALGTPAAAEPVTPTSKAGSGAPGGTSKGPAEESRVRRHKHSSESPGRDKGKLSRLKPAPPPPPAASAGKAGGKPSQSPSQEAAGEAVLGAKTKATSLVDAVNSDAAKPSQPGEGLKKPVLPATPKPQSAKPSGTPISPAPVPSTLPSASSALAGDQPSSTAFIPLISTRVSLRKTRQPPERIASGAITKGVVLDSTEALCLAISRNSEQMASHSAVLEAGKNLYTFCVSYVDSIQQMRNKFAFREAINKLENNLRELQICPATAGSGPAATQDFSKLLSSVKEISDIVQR
Chain of Ras and Rab interactor 1/Tyrosine-protein kinase ABL1 (Q13671 whole entry): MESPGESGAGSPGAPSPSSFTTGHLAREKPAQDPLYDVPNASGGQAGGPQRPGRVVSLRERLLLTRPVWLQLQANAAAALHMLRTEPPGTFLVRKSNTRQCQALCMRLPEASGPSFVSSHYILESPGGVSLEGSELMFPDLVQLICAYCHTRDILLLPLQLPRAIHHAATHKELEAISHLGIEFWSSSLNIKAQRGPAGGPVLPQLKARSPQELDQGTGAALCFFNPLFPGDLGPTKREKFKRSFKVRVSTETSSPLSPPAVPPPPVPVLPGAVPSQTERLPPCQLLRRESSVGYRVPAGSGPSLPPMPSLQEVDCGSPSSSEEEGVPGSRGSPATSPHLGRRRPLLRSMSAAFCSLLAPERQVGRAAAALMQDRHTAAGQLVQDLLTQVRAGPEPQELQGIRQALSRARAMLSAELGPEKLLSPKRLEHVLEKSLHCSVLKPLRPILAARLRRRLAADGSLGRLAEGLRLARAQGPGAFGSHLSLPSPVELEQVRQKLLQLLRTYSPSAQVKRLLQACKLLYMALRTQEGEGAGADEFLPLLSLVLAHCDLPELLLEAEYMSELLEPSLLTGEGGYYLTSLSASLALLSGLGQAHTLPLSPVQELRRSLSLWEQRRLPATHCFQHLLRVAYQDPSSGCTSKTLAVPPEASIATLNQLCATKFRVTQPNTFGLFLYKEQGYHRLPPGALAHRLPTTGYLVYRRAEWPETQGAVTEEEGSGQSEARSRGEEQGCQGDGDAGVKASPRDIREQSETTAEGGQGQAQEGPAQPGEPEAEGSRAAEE
Chain of Large T antigen (P03070 whole entry, the tested form may be a part): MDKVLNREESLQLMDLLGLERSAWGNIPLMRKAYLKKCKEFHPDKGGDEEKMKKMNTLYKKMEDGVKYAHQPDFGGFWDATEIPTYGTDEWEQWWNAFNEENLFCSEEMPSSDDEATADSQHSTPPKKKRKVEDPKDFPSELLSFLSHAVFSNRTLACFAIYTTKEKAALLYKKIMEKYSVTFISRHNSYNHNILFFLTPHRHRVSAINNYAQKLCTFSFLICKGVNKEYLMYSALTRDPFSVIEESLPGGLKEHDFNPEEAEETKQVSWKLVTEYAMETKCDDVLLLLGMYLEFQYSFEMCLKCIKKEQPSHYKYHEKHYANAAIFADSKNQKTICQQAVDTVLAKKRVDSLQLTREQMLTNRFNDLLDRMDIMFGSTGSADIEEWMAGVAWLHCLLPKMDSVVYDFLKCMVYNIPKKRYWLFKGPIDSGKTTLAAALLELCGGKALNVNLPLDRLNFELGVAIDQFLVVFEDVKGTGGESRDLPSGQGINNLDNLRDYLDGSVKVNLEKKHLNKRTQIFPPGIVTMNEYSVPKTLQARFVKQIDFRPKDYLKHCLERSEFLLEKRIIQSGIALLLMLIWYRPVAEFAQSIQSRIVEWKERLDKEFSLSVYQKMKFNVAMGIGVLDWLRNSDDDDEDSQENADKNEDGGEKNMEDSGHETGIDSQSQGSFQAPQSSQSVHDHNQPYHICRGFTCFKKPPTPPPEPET

SMILES: CCN(CC)CCOC(=O)c1ccc(N/C=C(\C#N)c2nc(-c3ccc(Br)cc3)cs2)cc1
- IC50 [1]: 14.7 µM (active)

SMILES: Oc1nccc(N/N=C/c2ccccc2)n1
- IC50 [2]: > 73.5 µM (inactive)

SMILES: C[N+]1(C)CCOC(O)(c2ccc(-c3ccc(C4(O)C[N+](C)(C)CCO4)cc3)cc2)C1 (stereo not given)
- AC50 [3]: 7.78 µM (active)
- IC50 [4]: 0.127 µM (active)
- IC50 [5]: 0.296 µM (active)

SMILES: Sc1nnc(-c2ccncc2)n1/N=C/C(Cl)=C\c1ccccc1
- IC50 (Interleukin-8 [6]): > 79 µM (inactive)
- IC50 (Interleukin-8 [7]): 3.4 µM (active)
- EC50 [8]: > 100 µM (active)

SMILES: CCN(CC)CCOC(=O)c1ccc(N/C=C(\C#N)c2nc(-c3cccs3)cs2)cc1
- IC50 [1]: 13.7 µM (active)

SMILES: Cc1ccc(C(C)NC(=O)C2CCCC2)cc1C (stereo not given)
- IC50 [4]: 6.48 µM (active)
- IC50 [5]: 8.58 µM (active)

SMILES: C[C@@H]1CN([C@H](C)CO)S(=O)(=O)c2ccc(C3=CCCC3)cc2O[C@@H]1CN(C)C(=O)c1cnccn1
- AC50 [9]: 13.5 µM (active)

SMILES: Oc1cccc(Nc2c3ccccc3nc3ccccc23)c1
- IC50 (Protein skinhead-1): > 100 µM (inactive)
- AC50 [10]: 2.66 µM (active)
- AC50 [3]: 3.09 µM (active)
- EC50 [11]: 0.672 µM (active)
- AC50 [12]: 4.49 µM (active)
- EC50 [13]: 21.8 µM (active)

SMILES: CCOc1ccc(NCc2cc3c(C(C)(C)C)nn(-c4ccccc4)c3nc2O)cc1
- IC50 (Interleukin-8 [6]): > 79 µM (inactive)
- IC50 (Interleukin-8 [7]): 0.628 µM (active)
- IC50 (H9c2): 24.2 µM (active)
- EC50 [14]: 9.36 µM (active)
- EC50 [15]: 13.5 µM (active)
- AC50 [16]: 8.84 µM (active)

SMILES: Cc1ccc(-n2ncc(C(=O)Nc3cc(Cl)ccc3C)c2C2CCNCC2)cc1C
- AC50 [9]: 51.5 µM (active)

SMILES: CC(=O)c1sc2nc(-c3ccc(C)cc3)c3c(c2c1N)CCCC3
- IC50 (CHO): 36.7 µM (inactive)
- IC50 (Beta Lactamase [17]): 3.73 µM (active)

SMILES: O=C(COc1nsnc1N1CCOCC1)N/N=C/c1ccccc1O
- EC50 [14]: 28.5 µM (active)
- EC50 [15]: 23.7 µM (active)
- AC50 [18]: 107 µM (active)

SMILES: CCCCCN1C(=O)c2cc(OC)ccc2[C@@]2(C(=O)OCC)Cc3cc(Cl)ccc3[C@@H]12
- IC50 [19]: 2.04 µM (active)
- IC50 (Beta Lactamase [20]): 18.8 µM (inactive)

SMILES: COc1ncccc1-c1cc2nc(NCCCN(C)C)n(C)c(=O)c2s1
- AC50 [3]: 4.91 µM (active)
- AC50 [12]: 12.9 µM (active)

SMILES: Cc1ccc(S(=O)(=O)N2[C@@H](c3ccc(Cl)cc3)C(C(=O)O)=CC[C@H]2c2ccc(C(C)C)cc2)cc1
- IC50 [21]: 5.56 µM (active)
- IC50 (Large T antigen): 60.4 µM (active)
- AC50 [10]: 10.3 µM (active)

SMILES: O=C(/C=C/c1ccc2c(c1)OCCCO2)c1ccccc1O
- IC50 [22]: 5.6 µM (active)

SMILES: Cc1ccc(O)c(C(=O)/C=C/c2ccc3c(c2)OCCCO3)c1
- IC50 [22]: 6.11 µM (active)
- EC50 (Melanocortin receptor 4): > 89.2 µM (inactive)
